The values that follow come from ChEMBL document CHEMBL1132685, “Nonpeptide glycoprotein IIB/IIIA inhibitors. 19. A new design paradigm employing linearly minimized, centrally constrained, exosite inhibitors” (Bioorg Med Chem Lett, 1999).

One may read the IC50 as the midpoint of a concentration-inhibition curve.

Molecules are shown by their SMILES.

The target in the test is Integrin alpha-IIb/beta-3 (Homo sapiens, UniProt P05106+P08514). In words: Inhibition of glycoprotein IIb/III integrin mediated fibrinogen binding to activated platelets. Format: functional.
Integrin alpha-IIb/beta-3, sequence (P05106 27-788 limits assumed): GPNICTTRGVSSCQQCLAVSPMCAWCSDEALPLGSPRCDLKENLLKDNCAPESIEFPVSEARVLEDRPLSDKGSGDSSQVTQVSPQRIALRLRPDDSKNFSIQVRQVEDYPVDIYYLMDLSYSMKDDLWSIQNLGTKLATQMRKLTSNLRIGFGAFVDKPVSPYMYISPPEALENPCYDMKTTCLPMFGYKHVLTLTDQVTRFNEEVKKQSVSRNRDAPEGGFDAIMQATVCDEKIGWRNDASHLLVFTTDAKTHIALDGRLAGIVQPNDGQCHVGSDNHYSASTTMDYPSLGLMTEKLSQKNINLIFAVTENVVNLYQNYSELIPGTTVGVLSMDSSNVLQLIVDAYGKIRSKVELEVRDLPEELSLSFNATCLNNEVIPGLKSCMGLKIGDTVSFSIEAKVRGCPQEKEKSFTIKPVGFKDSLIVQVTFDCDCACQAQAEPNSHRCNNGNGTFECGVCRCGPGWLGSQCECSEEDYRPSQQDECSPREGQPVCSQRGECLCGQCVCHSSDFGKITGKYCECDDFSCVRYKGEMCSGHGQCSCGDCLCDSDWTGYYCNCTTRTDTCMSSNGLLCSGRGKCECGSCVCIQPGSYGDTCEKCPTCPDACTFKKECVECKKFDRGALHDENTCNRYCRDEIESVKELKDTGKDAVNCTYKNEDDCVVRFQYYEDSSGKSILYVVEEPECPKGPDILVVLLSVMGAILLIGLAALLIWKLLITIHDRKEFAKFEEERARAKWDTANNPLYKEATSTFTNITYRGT
Integrin alpha-IIb/beta-3, sequence (P08514 32-887 limits assumed): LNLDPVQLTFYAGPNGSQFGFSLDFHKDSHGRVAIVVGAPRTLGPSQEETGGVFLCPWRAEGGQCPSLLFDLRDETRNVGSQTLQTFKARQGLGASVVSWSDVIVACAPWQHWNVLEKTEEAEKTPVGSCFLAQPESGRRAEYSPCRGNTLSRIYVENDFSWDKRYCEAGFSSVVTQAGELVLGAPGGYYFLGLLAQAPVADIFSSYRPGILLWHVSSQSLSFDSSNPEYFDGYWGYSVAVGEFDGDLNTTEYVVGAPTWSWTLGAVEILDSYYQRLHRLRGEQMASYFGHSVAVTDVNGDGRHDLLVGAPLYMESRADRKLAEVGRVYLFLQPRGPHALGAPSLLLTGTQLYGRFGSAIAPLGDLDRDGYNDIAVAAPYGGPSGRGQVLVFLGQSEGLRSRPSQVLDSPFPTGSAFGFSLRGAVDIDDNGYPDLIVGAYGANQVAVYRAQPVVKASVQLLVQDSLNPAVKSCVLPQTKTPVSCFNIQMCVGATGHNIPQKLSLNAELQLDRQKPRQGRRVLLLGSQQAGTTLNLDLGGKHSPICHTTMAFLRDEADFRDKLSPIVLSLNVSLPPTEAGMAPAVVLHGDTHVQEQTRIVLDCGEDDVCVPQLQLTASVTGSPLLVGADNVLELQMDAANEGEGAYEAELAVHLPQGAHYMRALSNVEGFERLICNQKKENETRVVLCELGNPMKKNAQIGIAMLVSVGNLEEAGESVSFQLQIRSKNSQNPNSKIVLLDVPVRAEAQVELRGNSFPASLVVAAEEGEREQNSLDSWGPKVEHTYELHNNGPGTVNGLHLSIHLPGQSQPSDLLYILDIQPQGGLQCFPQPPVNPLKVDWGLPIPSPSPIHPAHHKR
Integrin alpha-IIb/beta-3, sequence (P08514 891-1039 limits assumed): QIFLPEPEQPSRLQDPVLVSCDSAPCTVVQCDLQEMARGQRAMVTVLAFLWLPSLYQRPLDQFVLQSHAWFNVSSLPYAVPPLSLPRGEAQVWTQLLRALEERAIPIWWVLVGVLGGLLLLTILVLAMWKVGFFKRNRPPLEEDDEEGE
Regarding `NCCOc1cccc(C(=O)NC[C@H](NS(=O)(=O)c2ccccc2)C(=O)O)c1`, the 50% inhibitory concentration (IC50) was 9200 nM.
The compound `O=C(O)CCNC(=O)c1ccc(N2CCNCC2)cc1` showed an IC50 of 230000 nM.
The figure for `NCCCCC(=O)NCC(=O)NC[C@@H](NS(=O)(=O)c1ccccc1)C(=O)O` is 29000 nM.
The result for `NCCCCCCC(=O)NCC(=O)NC[C@@H](NS(=O)(=O)c1ccccc1)C(=O)O` reads 380 nM.
The figure for `O=C(NC[C@H](NS(=O)(=O)c1ccccc1)C(=O)O)c1ccc(CCC2CCCCN2)cc1` (some centres undefined) is 130 nM.
Compound `NCCCCCOc1ccc(C(=O)NC[C@H](NS(=O)(=O)c2ccccc2)C(=O)O)cc1` yielded an IC50 of 13 nM.
The result for `O=C(NC[C@H](NS(=O)(=O)c1ccccc1)C(=O)O)c1ccc(CN2CCNCC2)cc1` reads 34 nM; that for `NCCCC(=O)NCC(=O)NC[C@@H](NS(=O)(=O)c1ccccc1)C(=O)O`, > 30000 nM; that for `NCCCCOc1ccc(C(=O)NC[C@H](NS(=O)(=O)c2ccccc2)C(=O)O)cc1`, 23 nM.
The result for `NCCCc1ccc(C(=O)NC[C@H](NS(=O)(=O)c2ccccc2)C(=O)O)cc1` reads 270 nM; that for `NCCCCCC(=O)NCC(=O)NC[C@@H](NS(=O)(=O)c1ccccc1)C(=O)O`, 2800 nM; that for `NCCc1ccc(C(=O)NC[C@H](NS(=O)(=O)c2ccccc2)C(=O)O)cc1`, 4900 nM.
For `NCCCOc1ccc(C(=O)NC[C@H](NS(=O)(=O)c2ccccc2)C(=O)O)cc1`, the IC50 was 55 nM.
The compound `NCCOc1ccc(C(=O)NC[C@H](NS(=O)(=O)c2ccccc2)C(=O)O)cc1` displayed an IC50 of 110 nM.
